Assay results taken from patent publication US8609381B2, “Methods to control bacterial growth in fermentation processes” (Dow Brasil Sudeste Industrial Ltda., priority 2007, dated 2013).

Key:
[1] = tested on: bacteria; assay: Effect of biocide on bacteria level (PCA medium plate count); type: cell-based; conditions: biocide concentration 50 ppm, 2 hours after contact
From the text: (§1) SDA medium is synthetic defined agar, and PCA medium is plate count agar. Dow Antimicrobial™ 7287 is a composition containing 20 percent 2,2-dibromo-3-nitrilopropionamide (DBNPA), sold by The Dow Chemical Company.

[2] = tested on: yeast; assay: Effect of biocide on yeast level (SDA medium plate count); type: cell-based; conditions: biocide concentration 50 ppm, 2 hours after contact
From the text: as §1

Compound	Bacteria level [1]	Yeast level [2]
O=CCCCC=O [UCARCIDE ™ 250, glutaraldehyde]	5.0 × 10^5 cfu/ml	5.0 × 10^4 cfu/ml
Diethyl Carbamate	2.6 × 10^7 cfu/ml	<1.0 × 10^4 cfu/ml
